Data on 13 molecules can be found in ChEMBL document CHEMBL1135542, “Successful virtual screening for novel inhibitors of human carbonic anhydrase: strategy and experimental confirmation” (J Med Chem, 2002).

Molecules are shown by their SMILES. pIC50, pKd, pKi: −log10 of the molar value.

Assay [1] concerns the target T1, Carbonic anhydrase 2 (Homo sapiens, UniProt P00918).
Assay [2] has as its target T1, Carbonic anhydrase 2. The source holds these as a separate data set.
Assay [3] addresses T1, Carbonic anhydrase 2. This is another data set of the same source.

By pIC50 is commonly meant the negative decadic logarithm of the IC50, by convention in mol/L. Molecule `CN(C)Cc1cc(S(=O)(=O)c2ccc(S(N)(=O)=O)s2)ccc1O` had a pIC50 on Carbonic anhydrase 2 [1] of 9.15.
One may read the pKd as the negative decadic logarithm of the Kd, by convention in mol/L. Read a high pKd as a small Kd. `NC(=O)NCCOCCOCCNC(=O)c1ccc(S(N)(=O)=O)cc1` gave a negative logarithm of the Kd (pKd) on Carbonic anhydrase 2 [2] of 7.37.
Regarding `CCN[C@H]1CN(CCCCOC)S(=O)(=O)c2sc(S(N)(=O)=O)cc21`, the pIC50 at Carbonic anhydrase 2 [1] is 8.49. In addition, at Carbonic anhydrase 2 [2], the negative logarithm of the Kd (pKd) is 9.89.
For the molecule `N[C@@H](Cc1ccccc1)C(=O)NCCOCCOCCNC(=O)c1ccc(S(N)(=O)=O)cc1` [PHENYLALANYLAMINODI(ETHYLOXY)ETHYL BENZENESULFONAMIDEAMINOCARBONYLBENZENESULFONAMIDE], the pKd at Carbonic anhydrase 2 [2] is 7.85.
One may read the pKi as the Ki on a negative log10 scale, so that one unit is a factor of ten. A lower pKi goes with a high Ki. On Carbonic anhydrase 2 [1], `NS(=O)(=O)c1cc2cc(N3CCOCC3)sc2s1` gave a pIC50 of 8.52. Moreover, the pKi on Carbonic anhydrase 2 [3] was 8.96.
`CCCCCCCCCS(=O)(=O)C(F)S(N)(=O)=O` (configuration not stated) had a pIC50 against Carbonic anhydrase 2 [1] of 8.52.
The same measure, in the same setting: the same measure for `CN(C)S(=O)(=O)Oc1ccc2nc(S(N)(=O)=O)sc2c1`: 8.92.
`COCCOCCN(CCOC)c1cc2cc(S(N)(=O)=O)sc2s1` gave a negative logarithm of the IC50 (pIC50) against Carbonic anhydrase 2 [1] of 8.55. Further, the pKi on Carbonic anhydrase 2 [3] was 8.80.
Molecule `CC(C)(C)C(=O)Oc1ccc2sc(S(N)(=O)=O)cc2c1` gave a negative-log IC50 (pIC50) on Carbonic anhydrase 2 [1] of 8.59.
Consider `NS(=O)(=O)c1cc2cc(N3CCSCC3)sc2s1`, for which the pIC50 on Carbonic anhydrase 2 [1] was 8.59. The molecule also showed a negative logarithm of the Ki (pKi) at Carbonic anhydrase 2 [3] of 9.36.
Regarding `CC1(C)O[C@H]2[C@@H]3OS(=O)(=O)O[C@@H]3CC[C@@]2(COS(N)(=O)=O)O1`, the pIC50 against Carbonic anhydrase 2 [1] is 6.89.
Take `NS(=O)(=O)OCCOc1ccc(-n2ccnc2)cc1`: on Carbonic anhydrase 2 [3], the pKi is 8.15.
Take `CN(C)c1cccc2c(S(N)(=O)=O)cccc12`: the negative logarithm of the Kd (pKd) on Carbonic anhydrase 2 [2] is 4.03.
